From PMC11218446, “Antibacterial efficacy and membrane mechanism of action of the Serratia-derived non-ionic lipopeptide, serrawettin W2-FL10” (Microbiology Spectrum, 2024)
“And” between values parts separate entries of the source, which are not always exact repeats. Equal values may be shown once.

Columns and labels:
S. aureus ATCC 25923 [1] = assay: Broth microdilution assay (OD 600 nm); assay type: cell-based, Staphylococcus aureus
Description: (§1) Serrawettin W2-FL10 (95% pure) was tested for antibacterial activity using a broth microdilution susceptibility assay ([6]), with melittin included as an antibiotic control. The serrawettin W2-FL10 was prepared in 70% MeCN to 1.00 mg/mL, from which aliquots were prepared using 70% MeCN to a concentration of 50 µg/mL or 500 µg/mL, while aliquots of melittin were prepared using analytical quality H2O to 128 µg/mL. Fifty microliters of the respective W2-FL10 aliquots or melittin were dispensed into a clear 96-well plate and a microdilution (in 70% MeCN for W2-FL10 or analytical quality H2O for melittin) was performed within the plate. The plate was air-dried to remove the solvent and placed in a desiccator with chloroform for 20 min for sterilization.
(§2) All the cultures (inoculated into 5 mL MHB, or 5 mL TSB for Listeria and Enterococcus strains) were incubated at 37°C to reach an optical density (OD) of 0.4 at 600 nm (∼10^7 CFU/mL). A 1:20 dilution of the test strain (final concentration of ∼10^5 CFU/mL) was prepared and 100 µL was dispensed into each well (final concentration of W2-FL10 at 1.5–125 µg/mL and melittin at 2–32 µg/mL). Sterile broth and the OD-adjusted inoculum were included as positive controls, while sterile broth (no inoculum) was included as a negative control. The 96-well plate was incubated for 18 h at 37°C. All the tests were performed in triplicate, with independent duplicates. Following incubation, the absorbance was measured using a microtiter plate reader at 600 nm. The 50% growth inhibition concentration (IC50) was determined using GraphPad Prism version 5 for Windows [GraphPad Software, San Diego, USA (www.graphpad.com)]. A sigmodal curve with variable slope was fitted to each set of dose-repose data according to Rautenbach et al. ([17]) using equation (1):
(§3) (1) Y=bottom+(top−bottom)/1+10^logIC50×Activity slope
(§4) The “top” and “bottom” are the maximum and minimum inhibition responses, respectively, for a particular set of dose-response data, while the activity slope is related to the Hill slope of a sigmoidal binding curve ([16]). […] The MIC value was determined for each set of dose-response data as the lowest concentration, resulting in ≥90% inhibition of the target cell growth. In addition to the MIC and IC50 inhibition parameters, an inhibition concentration factor (ICF), was calculated as outlined in Rautenbach et al. ([17]). The ICF is indicative of the concentration increase from the highest concentration where no activity is observed to the MIC of a compound.

S. aureus RN4220 [2] = assay: Broth microdilution assay (OD 600 nm); assay type: cell-based, Staphylococcus aureus
Description: as §1, §2, §3, §4

[3] = test system: S. aureus Xen 30 (MRSA Xen 30); assay: Broth microdilution assay (OD 600 nm); assay type: cell-based, Staphylococcus aureus
Description: as §1, §2, §3, §4

B. subtilis ATCC 6051 = assay: Broth microdilution assay (OD 600 nm); assay type: cell-based, Bacillus subtilis
Description: as §1
as §2, with “A sigmodal curve with variable slope was fitted to each set of dose-repose data according to Rautenbach et al. ([17]) using equation (1):” left out
The “top” and “bottom” are the maximum and minimum inhibition responses, respectively, for a particular set of dose-response data, while the activity slope is related to the Hill slope of a sigmoidal binding curve ([16]). […] In addition to the MIC and IC50 inhibition parameters, an inhibition concentration factor (ICF), was calculated as outlined in Rautenbach et al. ([17]). […]

three S. aureus strains = assay: Time-kill kinetics, summary; assay type: cell-based, Staphylococcus aureus; details: at MIC
Description: Time-kill assays were performed for W2-FL10 against S. aureus ATCC 25923, S. aureus RN4220, and MRSA Xen 30 to determine the bacteriostatic (suppresses growth) or bactericidal (>3 log reduction in CFUs) activity of the compound, allowing for the determination of cell survival percentage per minute ([19]).
To determine the kill rate of the lipopeptide, exponentially growing S. aureus strains were prepared as described in the “Antibacterial activity: broth microdilution assay” section (OD600 = 0.4, ~10^7 CFU/mL; 1:20 dilution was conducted to obtain ~10^5 CFU/mL) ([24], [55]). Thereafter, 200 µL of the bacterial suspension (in MHB) was dispensed into a clear 96-well plate containing 12.5 or 25 µg/mL of W2-FL10, and plates were incubated at 37°C. Aliquots of 20 µL were collected at different time intervals (0, 1, 2, 4, 8, and 24 h), diluted in 180 µL PBS in a clear 96-well plate (from 10^−2 to 10^−8), and 100 µL of the respective dilution was spread onto LB agar plates. Undiluted samples of 20 µL were spot-plated onto LB agar to confirm the absence of cells at 8 and/or 24 h. The LB agar plates were then incubated overnight at 37°C and the CFU/mL was determined. A positive control of bacterial cells without peptide and a negative control with only LB were included. All the tests were performed in triplicate, with independent duplicates. […]

MRSA Xen 30 = assay: Scanning electron microscopy; assay type: cell-based, Staphylococcus aureus; details: 25 µg/mL, 1 h
Description: (§5) SEM was performed to visualize the bacterial membrane morphology following treatment ([24]). Briefly, the S. aureus strains were prepared as described in the “Antibacterial activity: broth microdilution assay” section and harvested by centrifugation at 3,000 rpm for 10 min. The cells were re-suspended in PBS at a dilution of ~10^7 CFU/mL (OD600 = 0.4). The diluted cultures were then treated with 25 µg/mL of W2-FL10, for 1 h, while cells without W2-FL10 were used as a control. Specimens were resuspended in 2.5% (vol/vol) glutaraldehyde solution in 0.1 M PBS (pH 7.2) and fixed for approximately 24 h. After the primary fixation, bacterial cells were pelleted and rinsed with PBS. Dehydration of samples through an ethanol series (30%, 50%, 70%, 90%, 95%, and 100% for 10 min each) was performed, followed by filtration onto a filter paper (pore size of 0.2 µm), which was glued onto an aluminum grid (11 mm diameter). The grid was dried with hexamethyldisilazane and coated with gold-palladium alloy. The grids were then inspected with a Tescan MIRA3 RISE Scanning Electron Microscope at the Electron Microscope Unit of the University of Cape Town.

S. aureus ATCC 25923 [4] = assay: Scanning electron microscopy; assay type: cell-based, Staphylococcus aureus; details: 25 µg/mL, 1 h
Description: as §5

S. aureus RN4220 [5] = assay: Scanning electron microscopy; assay type: cell-based, Staphylococcus aureus; details: 25 µg/mL, 1 h; primarily one large lesion per cell
Description: as §5

[6] = 50% growth inhibition, sigmoidal curve fit, n = 3
[7] = inhibition concentration factor
[8] = ≥90% growth inhibition, OD 600 nm, MHB, 18 h 37°C

## CCCCCCCC1CC(=O)N[C@H](CC(C)C)C(=O)N[C@@H](CO)C(=O)N[C@@H]([C@@H](C)O)C(=O)N[C@H](Cc2ccccc2)C(=O)N[C@@H](CC(C)C)C(=O)O1 (stereo partly shown) [W2-FL10, serrawettin W2-FL10]
S. aureus ATCC 25923 [1]; [6]
  IC50 ± SD: 5.5 ± 0.3 (3) µg/mL
S. aureus ATCC 25923 [1]; LC50 (CHO)/IC50
  Selectivity index: 5.3
S. aureus ATCC 25923 [1]; [7]
  ICF (MIC/IC50)^2: 5.2
S. aureus ATCC 25923 [1]; [8]
  MIC: 12.5 μg/mL and 12.5 (17.1) μg/mL
S. aureus RN4220 [2]; [6]
  IC50 ± SD: 5.7 ± 0.6 (3) µg/mL
S. aureus RN4220 [2]; LC50 (CHO)/IC50
  Selectivity index: 5.1
S. aureus RN4220 [2]; [7]
  ICF (MIC/IC50)^2: 4.9
S. aureus RN4220 [2]; [8]
  MIC: 12.5 μg/mL and 12.5 (17.1) μg/mL
[3]; [6]
  IC50 ± SD: 5.7 ± 0.6 (3) µg/mL
[3]; LC50 (CHO)/IC50
  Selectivity index: 5.1
[3]; [7]
  ICF (MIC/IC50)^2: 4.8
[3]; [8]
  MIC: 12.5 μg/mL and 12.5 (17.1) μg/mL
B. subtilis ATCC 6051; [6]
  IC50 ± SD: 13.4 ± 0.8 (3) µg/mL
B. subtilis ATCC 6051; LC50 (CHO)/IC50
  Selectivity index: 2.2
B. subtilis ATCC 6051; [8]
  MIC: 31.3 μg/mL and 31.3 (42.7) μg/mL
Three S. aureus strains
  time within which >90% bactericidal action occurred: 4 to 8 h
MRSA Xen 30
  morphology by SEM, in words: Minor morphological changes
S. aureus ATCC 25923 [4]
  morphology by SEM, in words: Minor morphological changes
S. aureus RN4220 [5]
  morphology by SEM, in words: more significant cell damage
